The results in this text go back to PMC10795023, “Structural Optimization and Biological Evaluation of Isoxazolo[5,4-d]pyrimidines as Selective Toll-Like Receptor 7 Agonists” (ACS Omega, 2024).

In series [1] the test system is human peripheral blood mononuclear cells (PBMCs). Briefly: Cytokine secretion in PBMCs, cytometric bead array. Conditions: 24 h; for IL-6 concentration / IL-8 secretion / IL-10 concentration / IL-12p70 secretion / TNF-α secretion / IL-1β secretion: 21a 62.5 and 12.5 μM, 24a 125 and 25 μM. The format is cell-based. The method, then: PBMCs were seeded on a 24-well plate and treated with compounds 21a (62.5 μM (21a (1)) and 12.5 μM (21a (2))) and 24a (125 μM (24a (1)) and 25 μM (24a (2))). For a positive control (PC), imiquimod (1) was used (final concentration is 10 μg/mL) and the negative control were cells treated with DMSO. […] The BD Human Cytometric Bead Array (BD Biosciences, California, USA) was used to assay the protein levels of IL-1β, IL-6, IL-8, IL-10, IL-12p70, and TNF-α in the cell culture supernatant, according to the manufacturer’s protocol (BD Biosciences). PBMCs were isolated from buffy coats obtained at the Blood Transfusion Centre of Slovenia. Cells were seeded into 24-well plates (5 × 10^5 cells/well in […] of RPMI medium, Sigma-Aldrich, St. Louis, Missouri, USA) and treated with the selected TLR7 agonist. For a PC, imiquimod was used (final concentration is 10 μg/mL) and the negative control were cells treated with DMSO. Cells were centrifuged after 24 h incubation at 5% CO2 and 37 °C, and cell culture supernatants were used for further analysis. In an assay tube, […] of the Capture Beads, […] of the Detection Reagent, and […] of sample (fivefold dilution) were mixed and incubated for 3 h at room temperature and protected from light. Samples were then washed with 1 mL of wash buffer and centrifuged at 200g for 5 min. The supernatant was carefully aspirated and discarded from each assay tube. The bead pellet was resuspended by adding […] of wash buffer. Flow cytometry was performed using a FACSCalibur system (Becton Dickinson, Inc., New Jersey, USA). A standard curve was prepared by serial dilutions of standards and used for determination of cytokine concentrations in supernatants.

Series [2] deals with HEK293 cell line cotransfected with the hTLR7 gene. Briefly: Cytotoxicity, MTS cell proliferation assay. It counts as cell-based, human. To be noted: 24 h. The method, then: The cytotoxicity of the compounds was determined by the MTS assay at concentrations of 150, 50, and 10 μM on the HEK293 cell line cotransfected with the hTLR7 gene (Figure 3).
The cytotoxicity of the compounds was determined using the MTS cell proliferation assay (CellTiter 96 AQueous One Solution Cell Proliferation Assay, Promega, Wisconsin, USA), according to the manufacturer's protocol on the HEK293 cell line, cotransfected with the hTLR7 gene (InVivoGen). Cells were seeded in 96-well plates (1.5 × 10^4 cells/well). After 24 h incubation at 5% CO2 and 37 °C, the cells were treated either with DMSO (negative control) or with solutions of the tested compounds in DMSO. After 24 h, MTS reagent (CellTiter 96 AQueous One Solution Cell Proliferation Assay, Promega, Wisconsin, USA) was added. Cells were incubated for another 2 h, and then absorbance was measured at 490 nm.
For orientation: Tetrazolium dyes change colour on reduction, which living cells bring about.

Another series has as its target T1, hTLR7 (Homo sapiens, UniProt Q9NYK1).
T1 construct: host or cells: HEK293
T1 sequence (Q9NYK1 27-1049): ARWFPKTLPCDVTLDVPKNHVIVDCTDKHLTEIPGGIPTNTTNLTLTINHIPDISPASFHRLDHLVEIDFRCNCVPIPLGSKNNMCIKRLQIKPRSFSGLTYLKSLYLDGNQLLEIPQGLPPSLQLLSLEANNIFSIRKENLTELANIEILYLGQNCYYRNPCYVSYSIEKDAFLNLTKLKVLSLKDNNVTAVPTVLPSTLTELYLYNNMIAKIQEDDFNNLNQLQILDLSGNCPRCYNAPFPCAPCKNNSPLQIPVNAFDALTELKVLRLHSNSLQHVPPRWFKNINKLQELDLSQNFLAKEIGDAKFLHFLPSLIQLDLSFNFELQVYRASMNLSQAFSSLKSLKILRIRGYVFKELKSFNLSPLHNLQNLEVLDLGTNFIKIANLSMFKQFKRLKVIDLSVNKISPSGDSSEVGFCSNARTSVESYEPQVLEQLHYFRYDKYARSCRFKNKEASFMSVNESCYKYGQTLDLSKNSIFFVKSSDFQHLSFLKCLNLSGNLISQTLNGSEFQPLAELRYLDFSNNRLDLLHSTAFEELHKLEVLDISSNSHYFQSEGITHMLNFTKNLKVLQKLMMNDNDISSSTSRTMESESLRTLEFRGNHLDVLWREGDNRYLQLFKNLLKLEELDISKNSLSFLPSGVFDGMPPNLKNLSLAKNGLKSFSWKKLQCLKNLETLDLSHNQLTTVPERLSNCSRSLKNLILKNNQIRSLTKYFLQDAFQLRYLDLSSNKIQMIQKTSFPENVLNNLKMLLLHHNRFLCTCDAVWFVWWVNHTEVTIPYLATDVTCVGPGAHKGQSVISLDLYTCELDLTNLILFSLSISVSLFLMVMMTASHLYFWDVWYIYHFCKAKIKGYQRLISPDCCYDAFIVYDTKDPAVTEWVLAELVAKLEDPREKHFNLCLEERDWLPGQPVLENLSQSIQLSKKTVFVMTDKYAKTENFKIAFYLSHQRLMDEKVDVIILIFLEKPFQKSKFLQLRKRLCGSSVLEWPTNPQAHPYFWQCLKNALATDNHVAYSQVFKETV
Briefly: TLR7 agonist activity, HEK293 hTLR7 SEAP reporter assay. The format is cell-based. To be noted: HEK293 cotransfected with hTLR7 and inducible SEAP reporter gene, 24 h treatment; average ± SD of three independent replicates; n.a. = not active; read-out: EC50. How it is done: TLR7 agonist activities were determined using the HEK293 cell line, which was cotransfected with the hTLR7 gene and an inducible SEAP reporter gene (InvivoGen, San Diego, California, USA) as described previously.[34] Briefly, cells were seeded in 96-well plates (3 × 10^4 cells/well) and incubated at 5% CO2 and 37 °C. After 24 h, the cells were treated with the solutions of the compounds in DMSO. Imiquimod was used as a PC. The cells were incubated again for 24 h under the same conditions. The activity of SEAP in the supernatant of the cells was measured using the QUANTI-Blue reagent (InvivoGen, San Diego, California, USA), according to the manufacturer's protocol. EC50 values were determined using GraphPad Prism 9.2.0. software (San Diego, California, USA) using the nonlinear regression curve fit and four-parameter logistic equation. All experiments were performed in three independent biological replicates. Values are given as averages from the independent measurements with standard deviations calculated.
(A reporter such as luciferase makes a cellular process visible.)

Entries after “also recorded” stand apart in the source; their conditions may differ.

Take `CC1CCCN(c2nc(C(F)(F)F)nc3onc(-c4ccc(F)cc4)c23)C1` (stereo not drawn) [Compound 21a, 3-(4-Fluorophenyl)-4-(3-methylpiperidin-1-yl)-6-(trifluoromethyl)isoxazolo[5,4-d]pyrimidine]: in series [1], the IL-6 concentration entry is reported as “did not increase significantly”, the IL-8 secretion result is reported as “induced the secretion”, the IL-10 concentration result is reported as “did not increase significantly” and the IL-12p70 secretion entry was “induced the secretion”. Moreover, the TNF-α secretion result in series [1] is “induced the secretion”. In addition, the IL-1β secretion result in series [1] (imiquimod 10 μg/mL) is recorded as “induced the secretion”. Also, in series [1] (21a at 62.5 μM, imiquimod 10 μg/mL), the “induction of TNF-α secretion in comparison to 1 (imiquimod)” value was “higher induction”. In addition, in series [2] (150, 50 and 10 μM), the “cytotoxicity (cell viability)” value is “noncytotoxic; also recorded: no cytotoxic effects”. Moreover, the EC50 (commonly the concentration at which the effect is half-maximal) on hTLR7 is 7.8 ± 0.1 µM.

In the case of `CC(C)Cn1cnc2c(N)nc3ccccc3c21` [imiquimod, reference compound], the IL-1β secretion result in series [1] (imiquimod 10 μg/mL) is recorded as “stimulated the release”.

Take `Cl.Fc1ccc(-c2noc3nc(C(F)(F)F)nc(N4CCNCC4)c23)cc1` [Compound 21i, 4-(3-(4-Fluorophenyl)-6-(trifluoromethyl)isoxazolo[5,4-d]pyrimidin-4-yl)piperazin-1-ium chloride]: the “cytotoxicity (cell viability)” value is on record as “highly cytotoxic” in series [2] (150 μM); “cytotoxic” in series [2] (150, 50 and 10 μM).

Take `CC1CCCN(c2nc(C(F)(F)F)nc3onc(C4CCNCC4)c23)C1.Cl` (stereo not drawn) [Compound 25a, 4-(4-(3-Methylpiperidin-1-yl)-6-(trifluoromethyl)isoxazolo[5,4-d]pyrimidin-3-yl)piperidin-1-ium chloride]: in series [2] (150 μM), the “cytotoxicity (cell viability)” value is recorded as “highly cytotoxic”.

Consider `CC(C)CNc1nc(C(F)(F)F)nc2onc(C3CCNCC3)c12.Cl` [Compound 25b, 4-(4-(Isobutylamino)-6-(trifluoromethyl)isoxazolo[5,4-d]pyrimidin-3-yl)piperidin-1-ium chloride], for which the “cytotoxicity (cell viability)” value in series [2] (150 μM) was “highly cytotoxic”.

As to `CC1CCCN(c2nc(C(F)(F)F)nc3onc(C4CC4)c23)C1` (stereo not drawn) [Compound 24a, 3-Cyclopropyl-4-(3-methylpiperidin-1-yl)-6-(trifluoromethyl)isoxazolo[5,4-d]pyrimidine], in series [1], the IL-6 concentration entry is recorded as “did not increase significantly”, the IL-8 secretion entry is “induced the secretion”, the IL-10 concentration entry is recorded as “did not increase significantly” and the IL-12p70 secretion entry is on record as “induced the secretion”. The TNF-α secretion result in series [1] is listed as “induced the secretion”. Moreover, the IL-1β secretion result in series [1] (imiquimod 10 μg/mL) was “induced the secretion”. The concentration giving a half-maximal response (EC50) at hTLR7 worked out at 25.3 ± 3.5 µM.
